Values joined by “and” are separate entries in the source; they are usually repeats but may differ in a detail not shown here. Equal values may be shown once.
Tests used:
[1] = tested on: human liver cancer cell HepG2; assay: In vitro activity assay, growth of HepG2 (thymidine incorporation); type: cell-based; conditions: 48 h
From the text: (§1) The anti-tumor activity and toxicity of the compounds according to the present invention can be assayed through standard operational procedures of pharmacological experiment. The experiments carried out herein can test the inhibitory effect of the compounds according to the present invention on the growth of human liver cancer cell HepG2, lung cancer cell NCI460, prostate cancer cell DU145, prostate cancer cell PC3, and human breast cancer cell MDA-MB-435. The operational procedure used is briefly described below by taking the inhibitory activity assay against human liver cancer cell HepG2 as an example.
Human liver cancer cell HepG2 grew in the follow medium:
Preparation of the growth medium: BRL minimum essential medium with Earle Salts (500 mL), with the addition of the following agents:
(§2) The operational procedure for the assay is as follows:
(§3) 1. Cells after being trypsinized were inoculated in 96-well plates at a concentration of 10^4 cells/well, and allowed to grow in a medium with a final volume of 200 μL. The 96-well plates after inoculation are allowed to stand for 24 hours at 37° C., in order to allow the cells to adhere to the surface of the wells.
(§4) 2. The medium was removed by carefully pipetting without disturbing the cell monolayer. 200 μL Fresh medium was added into each well. It is arranged to make it possible to collect samples from enough wells to run the experiments in triplicate.
(§5) 3. The compounds to be tested according to the present invention were dissolved into 10 μL phosphate buffered solution (PBS) and incubated for 48 h at 37° C.
(§6) 4. In the last 6 h of incubation, cells in each well of the 96-well plates were labeled by 1 microcurie T thymidine (New England Nuclear thymidine), by adding 10 μL PBS containing 1 microcurie T thymidine (which was added into the PBS on the day of collecting the samples for test). The 96-well plates were then returned to the incubator and incubated for the last 6 h.
(§7) 5. Without disturbing the cell monolayer, the radioactive medium was removed by pipetting. Then 50 μL of BRL 10×trypsin was added to each well, followed by incubation at 37° C. for 10 minutes or until the cell monolayer was detached from the bottom (or the wall) of each well. Samples were collected on glass-fiber diskettes using a Skatron 96-well cell harvester. Cells depositing on the glass-fiber diskettes were counted in a Wallac Betaplate counter.

[2] = tested on: lung cancer cell NCI460; assay: In vitro activity assay, growth of NCI460; type: cell-based; conditions: NCI-460, 48 h
From the text: as §1, §2, §3, §4, §5, §6, §7

[3] = tested on: prostate cancer cell DU145; assay: In vitro activity assay, growth of DU145; type: cell-based; conditions: Homo sapiens; DU-145; 48 h
From the text: as §1, §2, §3, §4, §5, §6, §7

[4] = tested on: prostate cancer cell PC3; assay: In vitro activity assay, growth of PC3; type: cell-based; conditions: 48 h
From the text: as §1, §2, §3, §4, §5, §6, §7

[5] = tested on: human breast cancer cell MDA-MB-435; assay: In vitro activity assay, growth of MDA-MB-435; type: cell-based; conditions: 48 h
From the text: as §1, §2, §3, §4, §5, §6, §7

[6] = tested on: human lung cancer cell NCI-H460; assay: In vivo inhibitory activity against NCI-H460 tumor in nude mice; conditions: everolimus 5 mg/kg, compound I-1 6.8 mg/kg, qw 4×
[7] = tested on: DU145; assay: In vivo tumor inhibitory efficacy against DU145 tumor in nude mice, intragastrical vs injection; conditions: for Mean Volume of Tumor: 3×/w, 4 w; for tumor inhibitory effect compared with intragastrical everolimus 5 mg/kg: compound I-1 tail vein injection, end of the test
Description: (§8) DU145 (the 3rd generation) tumors in the rapid proliferation stage inoculated in the axilla of nude mice were cut into tumor lumps with a size of 1 mm*1 mm*1 mm and then were inoculated subcutaneously to the right limb of nude mice using a trocar under a sterile condition. When the tumors grow to 150-200 mm^3, the mice were randomly divided into three groups and then administrated with the compounds for 4 weeks. The major diameter (a) and the minor diameter (b) of the tumors were measured 2 or 3 times a week. The tumor volume (TV) was calculated with the following equation: TV=½×a×b^2. Tumors were stripped and weighted at Day 28 and the tumor inhibition rate was calculated using the following equation: (tumor weight of control−tumor weight of experimental group)/tumor weight of control×100%.
(§9) The nude mice were divided into 3 groups with 4 mice per group when the tumors averagely grew to about 185-200 mm^3, depending on the growth regularity of the tumor and the dosage regimen.

[8] = tested on: human renal cell carcinoma OS-RC-2; assay: In vivo inhibitory activity against human renal cell carcinoma OS-RC-2 in nude mice; conditions: for Tumor Weight ± SD: end of experiment
Description: The tumor inhibition rate was calculated.

[9] = Body weight of DU145 tumor nude mice; conditions: 3×/w, 4 w;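 note: dosing started once xenografts reached 150-200 mm^3, with mice randomized into three groups, loss of body weight served as an indirect sign of drug toxicity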
Description: as §8, §9
G1: positive drug group: Everolimus (5 mg/kg, qw, 4 w, 3×/w); administration route: intragastrical administration;

[10] = Day 0, G2 compound I-1 3.4 mg/kg tail vein injection
[11] = Day 0, G3 compound I-1 1.7 mg/kg tail vein injection
[12] = Day 3, G2 compound I-1 3.4 mg/kg tail vein injection
[13] = Day 3, G3 compound I-1 1.7 mg/kg tail vein injection
[14] = Day 7, G2 compound I-1 3.4 mg/kg tail vein injection
[15] = Day 7, G3 compound I-1 1.7 mg/kg tail vein injection
[16] = Day 10, G2 compound I-1 3.4 mg/kg tail vein injection
[17] = G4 compound I-1 8.12 mg/kg ig 3×/qw
[18] = G5 compound I-1 2.0 mg/kg iv 3×/qw
[19] = G6 compound I-1 8.12 mg/kg iv 3×/qw
[20] = G7 compound I-1 32.7 mg/kg iv 1×/qw

Compound: CO[C@H]1C[C@@H]2CC[C@@H](C)[C@@](O)(O2)C(=O)C(=O)N2CCCC[C@H]2C(=O)OC([C@H](C)C[C@@H]2CC[C@@H](OCCOC(=O)CSC[C@H](NC(=O)CC[C@H](N)C(=O)O)C(=O)NCC(=O)O)[C@H](OC)C2)CC(=O)[C@H](C)/C=C(\C)[C@@H](O)[C@@H](OC)C(=O)[C@H](C)C[C@@H](C)\C=C/C=C/C=C/1C (stereo partly shown) [Compound I-1]
- IC50 [1]: 11.127 ± 0.005 µM
- IC50 [2]: 27.204 ± 0.007 µM
- IC50 [3]: 56.215 ± 0.003 µM
- IC50 [4]: 25.978 ± 0.008 µM
- IC50 [5]: 55.345 ± 0.005 µM
- Mean Volume of Tumor ([6]; Day 0): 195.1545 mm^3
- Mean Volume of Tumor ([6]; Day 3): 232.4297 mm^3
- Mean Volume of Tumor ([6]; Day 7): 273.2138 mm^3
- Mean Volume of Tumor ([6]; Day 10): 360.0897 mm^3
- Mean Volume of Tumor ([6]; Day 14): 506.8288 mm^3
- Mean Volume of Tumor ([6]; Day 17): 612.8810 mm^3
- Mean Volume of Tumor ([6]; Day 21): 934.2806 mm^3
- Mean Volume of Tumor ([6]; Day 24): 1089.1761 mm^3
- Tumor Inhibition Rate ([6]; Day 28, by tumor weight): 68% and 68.29%
- Mean Volume of Tumor ([6]; Day 28): 1354.8457 mm^3
- Tumor Weight ± SD ([6]; Day 28): 0.8463 ± 0.1582 g
- Mean Volume of Tumor [7, 10]: 189.84 mm^3
- Mean Volume of Tumor [7, 11]: 187.29 mm^3
- Mean Volume of Tumor [7, 12]: 203.79 mm^3
- Mean Volume of Tumor [7, 13]: 235.34 mm^3
- Mean Volume of Tumor [7, 14]: 223.91 mm^3
- Mean Volume of Tumor [7, 15]: 250.90 mm^3
- Mean Volume of Tumor [7, 16]: 245.45 mm^3
- Mean Volume of Tumor ([7]; Day 10, G3 compound I-1 1.7 mg/kg tail vein injection): 269.25 mm^3
- Mean Volume of Tumor ([7]; Day 14, G2 compound I-1 3.4 mg/kg tail vein injection): 255.59 mm^3
- Mean Volume of Tumor ([7]; Day 14, G3 compound I-1 1.7 mg/kg tail vein injection): 281.22 mm^3
- Mean Volume of Tumor ([7]; Day 17, G2 compound I-1 3.4 mg/kg tail vein injection): 261.55 mm^3
- Mean Volume of Tumor ([7]; Day 17, G3 compound I-1 1.7 mg/kg tail vein injection): 280.18 mm^3
- Mean Volume of Tumor ([7]; Day 21, G2 compound I-1 3.4 mg/kg tail vein injection): 257.96 mm^3
- Mean Volume of Tumor ([7]; Day 21, G3 compound I-1 1.7 mg/kg tail vein injection): 300.52 mm^3
- Mean Volume of Tumor ([7]; Day 24, G2 compound I-1 3.4 mg/kg tail vein injection): 241.11 mm^3
- Mean Volume of Tumor ([7]; Day 24, G3 compound I-1 1.7 mg/kg tail vein injection): 288.39 mm^3
- Mean Volume of Tumor ([7]; Day 28, G2 compound I-1 3.4 mg/kg tail vein injection): 267.54 mm^3
- Mean Volume of Tumor ([7]; Day 28, G3 compound I-1 1.7 mg/kg tail vein injection): 323.75 mm^3
- tumor inhibitory effect compared with intragastrical everolimus 5 mg/kg ([7]; dosage equivalent to a quarter of that of everolimus (1.7 mg/kg)): substantially the same tumor inhibitory effect as that of intragastrical administration of everolimus
- tumor inhibitory effect compared with intragastrical everolimus 5 mg/kg ([7]; dosage equivalent to half of that of everolimus (3.4 mg/kg)): significantly superior to that of intragastric administration of everolimus
- Tumor Inhibition Rate [8, 17]: 55.6%
- Tumor Inhibition Rate [8, 18]: 57.1%
- Tumor Inhibition Rate [8, 19]: 59.9%
- Tumor Inhibition Rate [8, 20]: 60.6%
- tumor inhibitory effect (FIG. 7) ([8]; compound I-1 injection, 2.0 mg/Kg 3 times a week or 32.7 mg/Kg once a week): a good tumor inhibitory effect
- Tumor Weight ± SD [8, 17]: 0.3002 ± 0.1108 g
- Tumor Weight ± SD [8, 18]: 0.2905 ± 0.0936 g
- Tumor Weight ± SD [8, 19]: 0.2710 ± 0.1695 g
- Tumor Weight ± SD [8, 20]: 0.2669 ± 0.1023 g
- Body Weight, mean value [9, 10]: 25.30 g
- Body Weight, mean value [9, 11]: 26.86 g
- Body Weight, mean value [9, 12]: 25.92 g
- Decrease rate (body weight) [9, 12]: −2.45%
- Body Weight, mean value [9, 13]: 27.32 g
- Decrease rate (body weight) [9, 13]: −1.70%
- Decrease in body weight ([9]; Day 3 vs Day 0, G2 compound I-1 3.4 mg/kg tail vein injection): -0.62 g
- Decrease in body weight ([9]; Day 3 vs Day 0, G3 compound I-1 1.7 mg/kg tail vein injection): -0.46 g
- Body Weight, mean value [9, 14]: 26.13 g
- Decrease rate (body weight) [9, 14]: −3.29%
- Body Weight, mean value [9, 15]: 27.17 g
- Decrease rate (body weight) [9, 15]: −1.16%
- Decrease in body weight ([9]; Day 7 vs Day 0, G2 compound I-1 3.4 mg/kg tail vein injection): -0.83 g
- Decrease in body weight ([9]; Day 7 vs Day 0, G3 compound I-1 1.7 mg/kg tail vein injection): -0.31 g
- Body Weight, mean value [9, 16]: 26.15 g
- Decrease rate (body weight) [9, 16]: −3.37%

— US10442835B2, “Water-soluble rapamycin derivatives” (Zhejiang Hisun Pharmaceutical Co., Ltd., priority 2016, dated 2019)
